{"source": "patent US10117903B1", "about": "“Method for regulating cancer stem cell growth by inhibiting phosphorylation of 120th threonine residue of TSPYL5 protein, a composition containing the peptide sequence functioning to inhibit the phosphorylation and a use thereof” (Korea Atomic Energy Research Institute, priority 2016, dated 2018)", "format_in_all_cases": "cell-based", "key": {"TSPYL5": {"system": "TSPYL5", "test": "Ubiquitination assay of TSPYL5", "experimental": "H460 cells were transfected with pcDNA3.1/TSPYL5 (wild-type) and pcDNA3.1/TSPYL5-120A constructed in Example 1. 48 hours later, 10 μM MK2206 was treated to the cells for 1 hour and then the cells were recovered. A protease inhibitor was added to a cell lysis solution (2% SDS, 150 mM NaCl, 10 mM Tris-HCl, pH 8.0), followed by mixing. 100 μl of the solution was added to the cells. The cells were lysed by using a sonicator. Centrifugation was performed at 13000 rpm. The supernatant was obtained, which was diluted in a diluting solution (0.01% SDS, 1.1% Triton X-100, 1.2 mM EDTA, 16.7 mM Tris-HCl (pH8.1), 167 mM NaCl) at 1/10, followed by reaction at 4° C. for 30 minutes. TSPYL5 or ubiquitin specific antibody was added thereto, followed by reaction for overnight to induce protein binding. Protein A/G agarose beads were added thereto, followed by reaction for 4 hours. The protein was washed with washing buffer (10 mM Tris-HCl pH 8.0, 1 M NaCl, 1 mM EDTA, 1% NP40) twice. The protein was mixed with loading buffer and heated at 95° C. Samples were loaded, followed by reaction with TSPYL5 or ubiquitin specific antibody to confirm the protein expression."}, "TSPYL5 protein [1]": {"system": "TSPYL5 protein", "test": "TSPYL5 expression after inhibition of AKT phosphorylation (PCR and Western blotting)", "conditions": "A549 cells", "experimental": "In addition, 20 μM of MK2206 (Santa Cruze Biotechnology), the AKT (serine/threonine protein kinase) inhibitor, was treated thereto, followed by investigation of the inhibition of AKT phosphorylation and the inhibition of TSPYL5 expression.\nWestern blotting was performed as follows in order to investigate the protein expression. Lysis buffer (0.05 M Tris-Cl (pH7.4), 0.15 M NaCl, 0.25% deoxycholic acid, 1% NP-40, 1 mM EDTA, and protease inhibitor cocktail) was added to the target cells, followed by reaction at 4° C. for 30 minutes. The cell lysate was centrifuged at 4° C. to obtain the supernatant. The supernatant was quantified. 40 μg of each protein was loaded on SDS-gel, followed by electrophoresis. The proteins were transferred onto nitrocellulose membrane, followed by blocking with BSA containing buffer at room temperature for 30 minutes. Then, the membrane was reacted with the primary antibody PTEN (1:1000), TSPYL5 (Santa Cruz), ALDH1A1, ALDH1A3 (Abcam), CD44, and β-actin, or GAPDH (CST) for 4 hours. Then, the membrane was reacted with the secondary antibody (1:10000). The nitrocellulose membrane was washed 5 times with PBS, followed by sensitization on the film with the detection solution. […]"}, "TSPYL5 protein [2]": {"system": "TSPYL5 protein", "test": "Location of TSPYL5 expression in cells after AKT/PI3K inhibitor (fluorescent microscope)", "conditions": "A549 cells, 10 μM MK2206 or 50 μM LY294002, 4 hours", "experimental": "(§1) 1×10^5 A549 cells placed on the culture dish with the cover glass were treated with 10 μM of MK2206 (AKT inhibitor) and 50 μM of LY294002 (PI3K inhibitor) for 4 hours. The cells were fixed in 4% paraformaldehyde solution for 20 minutes. Then, the cover glass was washed with PBS three times and then treated with 0.5% TritonX-100 solution for 5 minutes. The cover glass was washed again with PBS three times. The cells were treated with 1% BSA for 2 hours, followed by reaction with the primary antibody TSPYL5 (Santa Cruz) diluted in PBS buffer at the ratio of 1:100 for 2 hours. Then, the cells were reacted with the secondary antibody Rabbit (Cell Signaling Technology) diluted at the ratio of 1:1000 for 1 hour. The cells were washed with PBS three times, and then the nucleus was stained with DAPI solution for 5 minutes. The location and the amount of TSPYL5 expression were investigated under fluorescent microscope."}, "A549 cells [3]": {"system": "A549 cells", "test": "Western blotting after AKT/PI3K inhibitor treatment", "conditions": "10 μM MK2206 or 50 μM LY294002, Western blotting", "experimental": "Western blotting was performed as follows in order to investigate the protein expression. Lysis buffer (0.05 M Tris-Cl (pH7.4), 0.15 M NaCl, 0.25% deoxycholic acid, 1% NP-40, 1 mM EDTA, and protease inhibitor cocktail) was added to the target cells, followed by reaction at 4° C. for 30 minutes. The cell lysate was centrifuged at 4° C. to obtain the supernatant. The supernatant was quantified. 40 μg of each protein was loaded on SDS-gel, followed by electrophoresis. The proteins were transferred onto nitrocellulose membrane, followed by blocking with BSA containing buffer at room temperature for 30 minutes. Then, the membrane was reacted with the primary antibody PTEN (1:1000), TSPYL5 (Santa Cruz), ALDH1A1, ALDH1A3 (Abcam), CD44, and β-actin, or GAPDH (CST) for 4 hours. Then, the membrane was reacted with the secondary antibody (1:10000). The nitrocellulose membrane was washed 5 times with PBS, followed by sensitization on the film with the detection solution.\nas §1\nWestern blotting was also performed by the same manner as described in Experimental Example <1-1>. As a result, when AKT or PI3K inhibitor was treated to the cells, the expressions of TSPYL5, phosphorylated AKT, CD44, ALDH1A3, and ALDH1A1 were reduced."}, "A549 cells [4]": {"system": "A549 cells", "test": "Cancer cell proliferation (colony-forming ability) after peptide treatment", "conditions": "10 μM of each peptide, 8 days, crystal violet staining, compared with DMSO control", "experimental": "Particularly, 1×10^3 A549 cells were distributed on a 35 mm plate, which were treated with 10 μM of each peptide. As for the control, DMSO was treated thereto, followed by culture in a 37° C. 5% CO2 incubator for 8 days. The cells were stained with 0.5% crystal violet for 10 minutes. The cells were washed with PBS several times and then cell proliferation was investigated."}, "A549 cells [5]": {"system": "A549 cells", "test": "Matrigel transwell invasion assay after peptide treatment", "conditions": "10 μM peptide, matrigel-coated transwell, compared with the control", "experimental": "(§2) The mixture was loaded in the transwell upper chamber. In the lower chamber, 500 μl of RPMI1640 supplemented with 7% FBS was loaded. Then, the two chambers were combined together. The cells were cultured in a 37° C. 5% CO2 incubator for 40 hours. The upper chamber membrane was wiped with cotton swabs, stained with crystal violet, and then observed under microscope.\n(§3) For invasion assay, the transwell upper chamber was coated with 100 μl of matrigel (20 μg/well; BD Biosciences). Then, the rest of the process was the same as described in the migration assay above. The cells stained with crystal violet were eluted with 500 μl of 10% acetic acid. OD600 was measured to calculate the relative migration/invasion value of A549 cells."}, "A549 cells [6]": {"system": "A549 cells", "test": "Transwell migration assay (cancer cell metastasis) after peptide treatment", "conditions": "10 μM peptide, 40 hours, compared with the control", "experimental": "as §2, §3"}, "A549 cells [7]": {"system": "A549 cells", "test": "Sphere formation after peptide treatment", "conditions": "10 μM of each peptide, 10 days, compared with the control", "experimental": "To investigate the capacity of TSPYL5 peptide to inhibit the sphere formation, 2×10^4 A549 cells (non-small cell lung cancer cells) were suspended in DMEM (Invitrogen) containing stem cell-permissive medium. 20 ng/ml of EGF, 20 ng/ml of basic fibroblast growth factor (bFGF) and B27 serum-free supplement (Invitrogen) were mixed with DMEM-F12 (Invitrogen). The cells were distributed in the 96 well plate pre-coated with 0.8% agar (one cell/well), to which 10 μM of each peptide was treated, followed by culture. The cells were cultured in a 37° C. 5% CO2 incubator for 10 days. Then, the sphere formation was observed."}, "TSPYL5 protein [8]": {"system": "TSPYL5 protein", "test": "TSPYL5 nuclear expression after SUMOylation inhibition", "conditions": "A549 cells, 3 uM, 2 hours", "experimental": "However, in the cells expressing pcDNA3.1/TSPYL5-120A, the SUMOylation was not observed. To confirm the SUMOylation inhibition, the SUMO1 inhibitor ginkgolic acid (Abcam) was treated to A549 cells at the concentration of 3 uM for 2 hours."}, "[9]": {"conditions": "H460 cells transfected with pcDNA3.1/TSPYL5, 10 μM MK2206, 1 hour"}}, "note": "Where a SMILES comes first, the peptide text is derived from it. The star is where a group is joined. Cbz = O=C(OCc1ccccc1)*", "data": [{"compound": "CC(C)C[C@@H](C=O)NC(=O)[C@H](CC(C)C)NC(=O)[C@H](CC(C)C)NC(=O)OCc1ccccc1", "note": "[MG132] (Cbz-Leu-Leu-Leu-aldehyde)", "values": [{"measurement": "protein degradation of TSPYL5", "setting": "TSPYL5; H460 cells, when the 120th amino acid of TSPYL5 was phosphorylated", "value": "suppressed"}]}, {"compound": "NC1(c2ccc(-c3nc4ccn5c(=O)[nH]nc5c4cc3-c3ccccc3)cc2)CCC1", "note": "[MK2206]", "values": [{"measurement": "AKT phosphorylation", "setting": "TSPYL5 protein [1]; 20 μM MK2206", "value": "suppressed"}, {"measurement": "expression of TSPYL5 protein", "setting": "TSPYL5 protein [1]; 20 μM MK2206, time course", "value": "inhibited in proportion to the suppression time of AKT phosphorylation"}, {"measurement": "phosphorylation of TSPYL5", "setting": "TSPYL5; [9]", "value": "inhibited"}, {"measurement": "ubiquitination of TSPYL5", "setting": "TSPYL5; [9]", "value": "increased"}, {"measurement": "TSPYL5 expression in the nucleus", "setting": "TSPYL5 protein [2]", "value": "not expressed in the nucleus"}, {"measurement": "expression of ALDH1A1", "setting": "A549 cells [3]", "value": "reduced"}, {"measurement": "expression of ALDH1A3", "setting": "A549 cells [3]", "value": "reduced"}, {"measurement": "expression of CD44", "setting": "A549 cells [3]", "value": "reduced"}, {"measurement": "expression of TSPYL5", "setting": "A549 cells [3]", "value": "reduced"}, {"measurement": "expression of phosphorylated AKT", "setting": "A549 cells [3]", "value": "reduced"}]}, {"compound": "SERSAADDVFVGTAG (TS120D) [phosphorylation analogue mutant peptide in which the 120th T was substituted with D]", "values": [{"measurement": "cell proliferation", "setting": "A549 cells [4]", "value": "significantly inhibited"}, {"measurement": "cell proliferation", "setting": "A549 cells [4]; listed as SEQ. ID. NO: 44", "value": "reduced"}, {"measurement": "invasion", "setting": "A549 cells [5]", "value": "reduced"}, {"measurement": "metastasis (migration)", "setting": "A549 cells [6]", "value": "reduced"}, {"measurement": "sphere formation", "setting": "A549 cells [7]", "value": "suppressed"}, {"measurement": "sphere formation", "setting": "A549 cells [7]; listed as SEQ. ID. NO: 44", "value": "inhibited"}]}, {"compound": "SERSAADTVFVGTAG (TS120T) [15 mer peptide containing the 120th residue threonine of TSPYL5]", "values": [{"measurement": "cell proliferation", "setting": "A549 cells [4]", "value": "significantly inhibited"}, {"measurement": "cell proliferation", "setting": "A549 cells [4]; listed as SEQ. ID. NO: 43", "value": "reduced"}, {"measurement": "invasion", "setting": "A549 cells [5]", "value": "reduced"}, {"measurement": "metastasis (migration)", "setting": "A549 cells [6]", "value": "reduced"}, {"measurement": "sphere formation", "setting": "A549 cells [7]", "value": "suppressed"}, {"measurement": "sphere formation", "setting": "A549 cells [7]; listed as SEQ. ID. NO: 43", "value": "inhibited"}]}, {"compound": "SERSSADAVFVGTAG (SERSAADAVFVGTAG; TS120A) [mutant peptide in which the 120th T was substituted with A]", "values": [{"measurement": "cell proliferation", "setting": "A549 cells [4]", "value": "not changed"}, {"measurement": "invasion", "setting": "A549 cells [5]", "value": "did not make any big difference with the control"}, {"measurement": "metastasis (migration)", "setting": "A549 cells [6]", "value": "did not make any big difference with the control"}, {"measurement": "sphere formation", "setting": "A549 cells [7]", "value": "not much changed"}]}, {"compound": "ginkgolic acid", "values": [{"measurement": "TSPYL5 protein expression in the nucleus", "setting": "TSPYL5 protein [8]", "value": "not expressed in the nucleus"}]}]}
